pIC50: −log10 of the molar value.
Tested on: 953936-095-R-J2-PDC spheroids with HUVEC/MSC, viability
Test: Anticancer human tumor 953936-095-R-J2-PDC patient-derived cervical squamous cell carcinoma cell line growth inhibition [PI3K]
Settings: for pIC50: curve of first compound; for viability, T/C: stronger effect = lower value
Summary of the method: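 Combination activity was assessed by viability in multicellular tumor spheroids carrying HUVEC and MSC components. Agents were tested with PI3K inhibitors from a Cmax-based top dose (or 10 microM) downward in half-log increments.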

[1] = second compound 0.0316 µM, first compound 0.0316 µM
[2] = second compound 0.0316 µM, first compound 0.1 µM
[3] = second compound 0.0316 µM, first compound 0.316 µM
[4] = second compound 0.0316 µM, first compound 1 µM
[5] = second compound 0.0316 µM, first compound 3.16 µM
[6] = second compound 0.0316 µM, first compound 10 µM
[7] = second compound 0.1 µM, first compound 0.0316 µM
[8] = second compound 0.1 µM, first compound 0.1 µM
[9] = second compound 0.1 µM, first compound 0.316 µM
[10] = second compound 0.1 µM, first compound 1 µM
[11] = second compound 0.1 µM, first compound 3.16 µM
[12] = second compound 0.1 µM, first compound 10 µM
[13] = second compound 0.316 µM, first compound 0.0316 µM
[14] = second compound 0.316 µM, first compound 0.1 µM
[15] = second compound 0.316 µM, first compound 0.316 µM
[16] = second compound 0.316 µM, first compound 1 µM
[17] = second compound 0.316 µM, first compound 3.16 µM
[18] = second compound 0.316 µM, first compound 10 µM
[19] = second compound 1 µM, first compound 0.0316 µM
[20] = second compound 1 µM, first compound 0.1 µM
[21] = second compound 1 µM, first compound 0.316 µM
[22] = second compound 1 µM, first compound 1 µM
[23] = second compound 1 µM, first compound 3.16 µM
[24] = second compound 1 µM, first compound 10 µM
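Further: spheroids exposed to compounds for seven days before read-out.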

Work on `Cn1nccc1Nc1nccc(-c2ccn(C(CO)c3ccc(Cl)c(F)c3)c(=O)c2)n1` (centres undefined) + Cc1nc(NC(=O)N2CCCC2C(N)=O)sc1-c1ccnc(C(C)(C)C(F)(F)F)c1 yielded a pIC50 (second compound 0.0316 µM) of less than 5.00, a pIC50 (second compound 0.1 µM) of less than 5.00 and a pIC50 (second compound 0.316 µM) of less than 5.00. The pIC50 (second compound 1 µM) was greater than 7.50, the pIC50 (second compound 3.16 µM) was greater than 7.50 and the pIC50 (second compound 10 µM) was greater than 7.50. It also gave a viability, T/C [1] of 77.7%, a viability, T/C [2] of 89.9% and a viability, T/C [3] of 78.3%. The viability, T/C [4] was 69.5%, the viability, T/C [5] was 72.9% and the viability, T/C [6] was 67.1%. It also gave a viability, T/C [7] of 77.1%, a viability, T/C [8] of 76.3% and a viability, T/C [9] of 66.7%. It also gave a viability, T/C [10] of 74.3%, a viability, T/C [11] of 63% and a viability, T/C [12] of 68.5%. The viability, T/C [13] was 63.3%, the viability, T/C [14] was 55.9% and the viability, T/C [15] was 52.6%. For the same molecule, the viability, T/C [16] was 56.4%, the viability, T/C [17] was 57.7% and the viability, T/C [18] was 52.6%. It also gave a viability, T/C [19] of 45.3%, a viability, T/C [20] of 39.7% and a viability, T/C [21] of 38.8%. The viability, T/C [22] was 37.6%, the viability, T/C [23] was 40.1% and the viability, T/C [24] was 31.9%. The viability, T/C (second compound 3.16 µM, first compound 0.0316 µM) was 23.5%, the viability, T/C (second compound 3.16 µM, first compound 0.1 µM) was 23.9% and the viability, T/C (second compound 3.16 µM, first compound 0.316 µM) was 21.1%. The viability, T/C (second compound 3.16 µM, first compound 1 µM) was 17.2%, the viability, T/C (second compound 3.16 µM, first compound 3.16 µM) was 15.2% and the viability, T/C (second compound 3.16 µM, first compound 10 µM) was 10.8%. The viability, T/C (second compound 10 µM, first compound 0.0316 µM) was 11.4%, the viability, T/C (second compound 10 µM, first compound 0.1 µM) was 9.37% and the viability, T/C (second compound 10 µM, first compound 0.316 µM) was 6.34%. The viability, T/C (second compound 10 µM, first compound 1 µM) was 4.57%, the viability, T/C (second compound 10 µM, first compound 3.16 µM) was 3.58% and the viability, T/C (second compound 10 µM, first compound 10 µM) was 1.86%.
Work on `CNC(=O)c1ccc(N2C(=S)N(c3ccc(C#N)c(C(F)(F)F)c3)C(=O)C2(C)C)cc1F` + COc1c(OCCCN2CCOCC2)ccc2c3n(c(=NC(=O)c4cnc(N)nc4)nc12)CCN3 yielded a pIC50 (second compound 0.00316 µM) of less than 5.00, a pIC50 (second compound 0.01 µM) of less than 5.00 and a pIC50 (second compound 0.0316 µM) greater than 7.50. The pIC50 (second compound 0.1 µM) was greater than 7.50, the pIC50 (second compound 0.316 µM) was greater than 7.50 and the pIC50 (second compound 1 µM) was greater than 7.50. For the same molecule, the viability, T/C (second compound 0.00316 µM, first compound 0.0316 µM) was 86.8%, the viability, T/C (second compound 0.00316 µM, first compound 0.1 µM) was 85% and the viability, T/C (second compound 0.00316 µM, first compound 0.316 µM) was 92%. The viability, T/C (second compound 0.00316 µM, first compound 1 µM) was 89.7%, the viability, T/C (second compound 0.00316 µM, first compound 3.16 µM) was 81.6% and the viability, T/C (second compound 0.00316 µM, first compound 10 µM) was 70%. The viability, T/C (second compound 0.01 µM, first compound 0.0316 µM) was 72.6%, the viability, T/C (second compound 0.01 µM, first compound 0.1 µM) was 72.3% and the viability, T/C (second compound 0.01 µM, first compound 0.316 µM) was 76.7%. For the same molecule, the viability, T/C (second compound 0.01 µM, first compound 1 µM) was 66.6%, the viability, T/C (second compound 0.01 µM, first compound 3.16 µM) was 74.6% and the viability, T/C (second compound 0.01 µM, first compound 10 µM) was 63.9%. It also gave a viability, T/C [1] of 42.1%, a viability, T/C [2] of 43% and a viability, T/C [3] of 42.3%. The viability, T/C [4] was 45.8%, the viability, T/C [5] was 41.6% and the viability, T/C [6] was 37.3%. For the same molecule, the viability, T/C [7] was 19.2%, the viability, T/C [8] was 18.7% and the viability, T/C [9] was 18.4%. It also gave a viability, T/C [10] of 18%, a viability, T/C [11] of 19.6% and a viability, T/C [12] of 17.2%. It also gave a viability, T/C [13] of 6.13%, a viability, T/C [14] of 6.8% and a viability, T/C [15] of 6.44%. For the same molecule, the viability, T/C [16] was 6.88%, the viability, T/C [17] was 8.06% and the viability, T/C [18] was 6.65%. It also gave a viability, T/C [19] of 1.46%, a viability, T/C [20] of 1.67% and a viability, T/C [21] of 1.58%. It also gave a viability, T/C [22] of 1.92%, a viability, T/C [23] of 1.61% and a viability, T/C [24] of 1.49%.
